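Interpolation was linear, between the two tested concentrations surrounding the appropriate level; five concentrations were tested over 48 hours in 96-well plates. The concentration for 50% growth inhibition is given as GI50.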 The source made the active and inactive calls. Cut-off read from the data, not from the text of the source: active = GI50 up to about 1.1 µM and inactive = higher.
Experiments:
Test in all cases: NCI tumour cell line growth inhibition, 48 h
[1] = tested on: NCI-H226
[2] = tested on: SF-295
[3] = tested on: OVCAR-8
[4] = tested on: K562
[5] = tested on: T47D
[6] = tested on: SN12C
[7] = tested on: RXF 393
[8] = tested on: NCI-H23
[9] = tested on: OVCAR-3
[10] = tested on: SW-620
[11] = tested on: PC-3
[12] = tested on: SK-OV-3
[13] = tested on: IGROV-1
[14] = tested on: SK-MEL-28
[15] = tested on: OVCAR-5
[16] = tested on: Malme-3M
[17] = tested on: 786-0
[18] = tested on: RPMI-8226
[19] = tested on: MCF7
[20] = tested on: A498

Structure (SMILES) | GI50 [1] | GI50 [2] | GI50 [3] | GI50 [4] | GI50 [5] | GI50 [6] | GI50 [7] | GI50 [8] | GI50 [9] | GI50 [10] | GI50 [11] | GI50 [12] | GI50 [13] | GI50 [14] | GI50 [15] | GI50 [16] | GI50 [17] | GI50 [18] | GI50 [19] | GI50 [20]
CCN1CN(c2ccccc2)C2(CCN(CCCSc3ccc(F)cc3)CC2)C1=O | 16.8 µM (inactive) | 13 µM (inactive) | 14.8 µM (inactive) | 12.9 µM (inactive) | 3.26 µM (inactive) | 8.47 µM (inactive) | 12.9 µM (inactive) | 10.4 µM (inactive) | 13.9 µM (inactive) | 7.29 µM (inactive) | 11.8 µM (inactive) | 15.8 µM (inactive) | 5.3 µM (inactive) | 17.3 µM (inactive) | 5.19 µM (inactive) | 19.9 µM (inactive) | 13.7 µM (inactive) | 10.1 µM (inactive) | 3.48 µM (inactive) | 
NNC(=O)CCCCCCCC(=O)O | > 100 µM (inactive) | > 100 µM (inactive) | 10.4 µM (inactive) | > 100 µM (inactive) | > 100 µM (inactive) | > 100 µM (inactive) |  | > 100 µM (inactive) | > 100 µM (inactive) | > 100 µM (inactive) | > 100 µM (inactive) | > 100 µM (inactive) | > 100 µM (inactive) | > 100 µM (inactive) | > 100 µM (inactive) | > 100 µM (inactive) | > 100 µM (inactive) | > 100 µM (inactive) | > 100 µM (inactive) | > 100 µM (inactive)
O=C1OCOC2(CCCC2)C1c1ccccc1 (stereo not given) | > 100 µM (inactive) | > 100 µM (inactive) | > 100 µM (inactive) | > 100 µM (inactive) | > 100 µM (inactive) | > 100 µM (inactive) | > 100 µM (inactive) | > 100 µM (inactive) | > 100 µM (inactive) | > 100 µM (inactive) | > 100 µM (inactive) | > 100 µM (inactive) | > 100 µM (inactive) | > 100 µM (inactive) | > 100 µM (inactive) | > 100 µM (inactive) | > 100 µM (inactive) | > 100 µM (inactive) |  | > 100 µM (inactive)
Cn1c(=O)c2c(ncn2CCCCOc2ccc3c(c2)[n+]([O-])nc(N)[n+]3[O-])n(C)c1=O | 19.4 µM (inactive) | 32.6 µM (inactive) | 20 µM (inactive) | 20.9 µM (inactive) | 2.38 µM (inactive) | 37.4 µM (inactive) | 14.9 µM (inactive) | 12.4 µM (inactive) | 20.4 µM (inactive) | 39.6 µM (inactive) | 21.3 µM (inactive) | 30.3 µM (inactive) | 15.7 µM (inactive) | 34.7 µM (inactive) |  | 21.1 µM (inactive) | 29 µM (inactive) | 30.5 µM (inactive) | 11.9 µM (inactive) | 
CN(C)CCn1c(=O)c2ccc(NCCNCCO)c3c(=O)c4ccccc4n(c1=O)c23 | 0.0348 µM (active) | 0.0469 µM (active) | 0.0632 µM (active) | 0.0245 µM (active) | 0.129 µM (active) | 0.0206 µM (active) |  | 0.0342 µM (active) | 0.288 µM (active) | 0.027 µM (active) | 0.182 µM (active) | 0.164 µM (active) | 0.0596 µM (active) | 0.815 µM (active) | 0.298 µM (active) | 0.336 µM (active) | 0.0149 µM (active) | < 0.0394 µM (active) | < 0.01 µM (active) | 0.106 µM (active)
Nc1ccc2c(c1)S(=O)(=O)c1cc(N)ccc1-2 | > 100 µM (inactive) | > 100 µM (inactive) | > 100 µM (inactive) | > 100 µM (inactive) | > 100 µM (inactive) | > 100 µM (inactive) | > 100 µM (inactive) | > 100 µM (inactive) | > 100 µM (inactive) | > 100 µM (inactive) | > 100 µM (inactive) | > 100 µM (inactive) | > 100 µM (inactive) |  | > 100 µM (inactive) |  | > 100 µM (inactive) |  | > 100 µM (inactive) | > 100 µM (inactive)
COc1ccc(-c2cc(=O)c3c(O)c(OC)c(OC)c(OC)c3o2)cc1 [GARDENIN B] | > 100 µM (inactive) | 20.7 µM (inactive) | > 100 µM (inactive) | 0.498 µM (active) | 26.9 µM (inactive) | > 100 µM (inactive) | 10.6 µM (inactive) | > 36.3 µM (inactive) | 6.47 µM (inactive) | 2.13 µM (inactive) | 30 µM (inactive) | 8.38 µM (inactive) | 2.33 µM (inactive) | > 100 µM (inactive) | 98.6 µM (inactive) | > 28.6 µM (inactive) | 21.5 µM (inactive) | > 28.1 µM (inactive) | 4.86 µM (inactive) | 

Reference: ChEMBL document CHEMBL1201862, “PubChem BioAssay data set” (2004)
